What all share (assay): Broth microdilution antifungal assay
Holding throughout (assay type): cell-based
Holding throughout (conditions): Sabouraud dextrose broth, 30° C., 48 hours

One experiment relates to S. cerevisiae 9763. The procedure:
(§1) For example, studies were performed to evaluate the antifungal activity of the recombinant peptide from pING4702 purified according to Example 6 in a broth microdilution assay using four strains of C. albicans, C. glabrata and S. cerevisiae. A similar peptide, XMP.391, that was chemically synthesized, was included in the assay as a positive control. To perform the broth microdilution assay, the fungal cultures were grown overnight at 30° C. in YPD medium (1% yeast extract, 2% peptone, and 2% dextrose). A 400 fold dilution of each culture in YPD was then made, and grown at 30° C. for 8 hours. Three mL of each culture were collected by centrifugation and suspended in 0.9% NaCl to an A600 of about 0.3. These cultures were further diluted to 1×10^4 CFU/mL in Sabouraud dextrose broth (6 mL). Recombinant peptide was in 5 mM acetate, 150 mM NaCl, pH 5.0 at a concentration of about 2 mg/mL. Synthetic peptide was at about 1 mg/mL. Samples were serially diluted and added to microtiter plates containing the cultures. Plates were incubated at 30° C. for 48 hours before growth inhibition was measured.

Another experiment deals with C. albicans SLU1. On the procedure: as §1
The subject of another experiment is C. albicans 14053. The procedure: as §1
Another experiment has as its system C. albicans 10231. On the procedure:
as §1

Another experiment deals with C. glabrata 2001. On the procedure: as §1
For the next experiment, the system named is C. albicans 26555. The procedure:
as §1

Turning to “Recombinant Peptide: BPI-derived peptide (SEQ ID NO: 3) acid-released from the Bone D-Asp-Pro-Pro-peptide fusion protein encoded by pING4702, purified according to Example 6 (KVGWLIQLFHKK; Human)”, the “Concentration that gives 95% inhibition” value in the experiment with S. cerevisiae 9763 stood at 7.5 µM; with C. albicans SLU1, 16 µM; with C. albicans 14053 it was 16 µM; in the experiment with C. albicans 10231 it was 30 µM; in the experiment on C. glabrata 2001, 30 µM; with C. albicans 26555, 30 µM.

On to “XMP.391: Chemically synthesized 12 amino acid BPI-derived peptide (Lys Val Gly Trp Leu Ile Gln Leu Phe His Lys Lys), positive control (KVGWLIQLFHKK; printed: Lys Val Gly Trp Leu Ile Gln Leu Phe His Lys Lys)”, for which the “Concentration that gives 95% inhibition” value with S. cerevisiae 9763 was found to be 2.0 µM; with C. albicans SLU1 it was 13.5 µM; in the experiment on C. albicans 14053, 16 µM; with C. albicans 10231, 16 µM; with C. glabrata 2001 it was 30 µM; in the experiment on C. albicans 26555, 16 µM.

These data come from patent publication US7749731B2, “Methods for recombinant peptide production” (XOMA Technology Ltd., priority 1999, dated 2010).
